According to US20190209501A1, “COMPOSITIONS AND METHODS OF USE OF BETA-HYDROXY-BETA-METHYLBUTYRATE (HMB) […] IN[…]” (Texas Tech University Office of Research Commercialization, priority 2018, published 2019):
Entries after “also recorded” stand apart in the source; their conditions may differ.

Key:
[1] = Reported side effects / adverse events; assay type: in vivo, human
[2] = approximate; cited from earlier work
[3] = Vascular assessments (blood pressure, aortic pulse wave velocity); assay type: in vivo, human; set-up: Pulse Wave Velocity: unit not given here; settings: for Aortic Diastolic Pressure / Aortic Systolic Pressure / Brachial Diastolic Pressure / Brachial Systolic Pressure / Heart Rate / Pulse Wave Velocity: mean ± SE; for Aortic Diastolic Pressure Δ / Aortic Diastolic Pressure Δ (%) / Aortic Systolic Pressure Δ / Aortic Systolic Pressure Δ (%) / Brachial Diastolic Pressure Δ / Brachial Diastolic Pressure Δ (%) / Brachial Systolic Pressure Δ / Brachial Systolic Pressure Δ (%) / Heart Rate Δ / Heart Rate Δ (%) / Pulse Wave Velocity Δ / Pulse Wave Velocity Δ (%): change baseline to W 8; for Aortic Diastolic Pressure ES (d) / Aortic Systolic Pressure ES (d) / Brachial Diastolic Pressure ES (d) / Brachial Systolic Pressure ES (d) / Heart Rate ES (d) / Pulse Wave Velocity ES (d): effect size
Description: Brachial blood pressure was measured using an automated cuff-based sphygmomanometer (HEM-907, Omron Healthcare. Kyoto, Japan). From this measurement, mean blood pressure and diastolic blood pressure were used to calibrate ensemble-averaged pressure waveforms measured at the left radial artery using applanation tonometry (SphygmoCor PVx, AtCor Medical, Itasca, Ill., USA). A general transfer function was also used to synthesize a central aortic waveform from the radial artery measurement. Wave separation analysis of the aortic pressure waveform allowed estimation of aortic pulse wave velocity (PWV), an index of arterial stiffness. Each participant remained supine for ≥10 min prior to vascular assessment. Duplicate measurements were obtained and averaged for analysis.

## CC(C)(O)CC(=O)O [TRFHMB, β-hydroxy-β-methylbutyrate]
[1]; week 4, n=1 each
  Reported side effects at W4: morning fatigue; also recorded: bloated stomach
[1]; week 8, n=1
  Reported side effects at W8: bloated stomach
[2]
  Loss of HMB to urine after HMB is fed: 20-50%
[3]; ITT, Baseline
  Aortic Diastolic Pressure: 68 ± 2 mmHg
  Aortic Systolic Pressure: 96 ± 2 mmHg
  Brachial Diastolic Pressure: 67 ± 1 mmHg
  Brachial Systolic Pressure: 112 ± 2 mmHg
  Heart Rate: 62 ± 3 bpm
  Pulse Wave Velocity: 5.5 ± 0.2
[3]; ITT, W 8
  Aortic Diastolic Pressure: 64 ± 2 mmHg
  Aortic Systolic Pressure: 94 ± 2 mmHg
  Brachial Diastolic Pressure: 63 ± 2 mmHg
  Brachial Systolic Pressure: 110 ± 2 mmHg
  Heart Rate: 63 ± 3 bpm
  Pulse Wave Velocity: 5.7 ± 0.1
[3]; ITT
  Aortic Diastolic Pressure Δ: −4 mmHg
  Aortic Diastolic Pressure Δ (%): −6%
  Aortic Systolic Pressure Δ: −2 mmHg
  Aortic Systolic Pressure Δ (%): −2%
  Brachial Diastolic Pressure Δ: −4 mmHg
  Brachial Diastolic Pressure Δ (%): −6%
  Brachial Systolic Pressure Δ: −2 mmHg
  Brachial Systolic Pressure Δ (%): −2%
  Heart Rate Δ: 1 bpm
  Heart Rate Δ (%): 2%
  Pulse Wave Velocity Δ: 0.2
  Pulse Wave Velocity Δ (%): 4%
  Aortic Diastolic Pressure ES (d): −0.64
  Aortic Systolic Pressure ES (d): −0.46
  Brachial Diastolic Pressure ES (d): −0.63
  Brachial Systolic Pressure ES (d): −0.22
  Heart Rate ES (d): 0.07
  Pulse Wave Velocity ES (d): 0.37
[3]; PP, Baseline
  Aortic Diastolic Pressure: 68 ± 2 mmHg
  Aortic Systolic Pressure: 97 ± 2 mmHg
  Brachial Diastolic Pressure: 67 ± 2 mmHg
  Brachial Systolic Pressure: 111 ± 2 mmHg
  Heart Rate: 62 ± 5 bpm
  Pulse Wave Velocity: 5.5 ± 0.3
[3]; PP, W 8
  Aortic Diastolic Pressure: 65 ± 2 mmHg
  Aortic Systolic Pressure: 95 ± 2 mmHg
  Brachial Diastolic Pressure: 64 ± 2 mmHg
  Brachial Systolic Pressure: 112 ± 2 mmHg
  Heart Rate: 62 ± 5 bpm
  Pulse Wave Velocity: 5.8 ± 0.2
[3]; PP
  Aortic Diastolic Pressure Δ: −3 mmHg
  Aortic Diastolic Pressure Δ (%): −4%
  Aortic Systolic Pressure Δ: −2 mmHg
  Aortic Systolic Pressure Δ (%): −2%
  Brachial Diastolic Pressure Δ: −3 mmHg
  Brachial Diastolic Pressure Δ (%): −4%
  Brachial Systolic Pressure Δ: 1 mmHg
  Brachial Systolic Pressure Δ (%): 1%
  Heart Rate Δ: 0 bpm
  Heart Rate Δ (%): 0%
  Pulse Wave Velocity Δ: 0.3
  Pulse Wave Velocity Δ (%): 5%
  Aortic Diastolic Pressure ES (d): −0.53
  Aortic Systolic Pressure ES (d): −0.20
  Brachial Diastolic Pressure ES (d): −0.49
  Brachial Systolic Pressure ES (d): 0.13
  Heart Rate ES (d): 0.06
  Pulse Wave Velocity ES (d): 0.46
